In ChEMBL document CHEMBL1201862, “PubChem BioAssay data set” (2004):
The source made the active and inactive calls.

Assays:
X-box-binding protein 1 = X-box-binding protein 1 (Homo sapiens, UniProt P17861); type: functional, Cricetulus griseus;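 also: confirmatory dose-response counter-screen serving a CHOP assay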
Ion channel NompC = Ion channel NompC (Danio rerio, UniProt Q7T1G6); experiment: Dose response cell-based high-throughput screening assay for agonists of the transient receptor potential channel N1 (TRPN1). [Related pubchem assays (depositor defined):AID1424, AID1448]; type: functional
Mucolipin-3 = Mucolipin-3 (Homo sapiens, UniProt Q8TDD5); experiment: Fluorescence counterscreen assay for […] agonists: dose response cell-based high-throughput screening assay to identify agonists of the transient receptor potential channel ML3 (TRPML3). [Related pubchem assays: 1424, 1448 ]; type: functional
Streptococcus = experiment: GAS UMAA2166 growth inhibition – luminescence, BacTiterGlo, counter-screen for streptokinase expression inhibitor project, dose response (AID 1915); type: functional, organism-based;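 also: potency for reduction of bacterial viability or growth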
[1] = tested on: Streptococcus sp. 'group A'; experiment: Streptococcus pyogenes SK(-)GAS viability under kanamycin – luminescence, BacTiterGlo, confirmation, counter-screen for streptokinase expression inhibitor project, dose response (AID 1900); type: functional, organism-based
HEK293 [2] = experiment: cells; type: functional, cell-based; settings: Homo sapiens
HEK293 [3] = experiment: cells; type: functional, cell-based; settings: Homo sapiens; remark: listed apart in the source
HEK293 [4] = experiment: inhibition of NOD1-driven NF-kB reporter – cell-based, luminescence, uHTS, primary screen (AID 1578); type: functional; settings: Homo sapiens
[5] = molecular target: Nucleotide-binding oligomerization domain-containing protein 2 (Homo sapiens, UniProt Q9HC29); experiment: inhibition of NOD2-driven NF-kB reporter – cell-based, luminescence, uHTS, HEK293 (AID 1566); type: functional
Nucleotide-binding oligomerization domain-containing protein 2, sequence (Q9HC29 whole entry, the tested form may be a part): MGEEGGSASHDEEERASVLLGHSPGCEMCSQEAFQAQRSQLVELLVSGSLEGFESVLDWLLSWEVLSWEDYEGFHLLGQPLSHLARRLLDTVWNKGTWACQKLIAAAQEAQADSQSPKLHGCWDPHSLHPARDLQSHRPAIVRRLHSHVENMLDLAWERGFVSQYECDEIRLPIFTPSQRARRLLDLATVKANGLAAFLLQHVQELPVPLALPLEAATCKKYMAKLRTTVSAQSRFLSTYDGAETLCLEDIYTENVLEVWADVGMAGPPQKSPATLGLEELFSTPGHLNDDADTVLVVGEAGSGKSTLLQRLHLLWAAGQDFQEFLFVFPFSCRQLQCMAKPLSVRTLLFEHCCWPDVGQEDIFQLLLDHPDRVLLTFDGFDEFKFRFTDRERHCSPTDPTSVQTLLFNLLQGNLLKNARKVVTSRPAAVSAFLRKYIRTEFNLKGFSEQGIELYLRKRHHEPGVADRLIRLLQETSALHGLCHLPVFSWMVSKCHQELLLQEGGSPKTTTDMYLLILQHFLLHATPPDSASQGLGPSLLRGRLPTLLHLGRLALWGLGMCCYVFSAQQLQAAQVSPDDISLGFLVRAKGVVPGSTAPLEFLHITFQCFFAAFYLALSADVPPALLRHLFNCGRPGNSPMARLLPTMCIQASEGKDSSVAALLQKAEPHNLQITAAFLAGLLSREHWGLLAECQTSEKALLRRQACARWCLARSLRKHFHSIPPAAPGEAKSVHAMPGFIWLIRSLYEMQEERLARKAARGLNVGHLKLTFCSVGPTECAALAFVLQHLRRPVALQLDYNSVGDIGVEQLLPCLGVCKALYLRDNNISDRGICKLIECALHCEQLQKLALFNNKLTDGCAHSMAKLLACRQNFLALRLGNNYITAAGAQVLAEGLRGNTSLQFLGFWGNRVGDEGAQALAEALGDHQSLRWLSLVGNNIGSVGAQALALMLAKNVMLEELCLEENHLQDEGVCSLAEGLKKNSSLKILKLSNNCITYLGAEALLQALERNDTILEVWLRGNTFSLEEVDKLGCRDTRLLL

HEK293 [6] = experiment: cells; type: functional, cell-based; settings: Homo sapiens; remark: listed apart in the source
HEK293 [7] = experiment: NOD2 signaling inhibitors in MDP-stimulated cells, cell-based, uHTS, luminescence (AID 2001); type: functional; settings: Homo sapiens
Protein skinhead-1 = molecular target: T1, Protein skinhead-1 (Caenorhabditis elegans, UniProt P34707); type: functional
T1 sequence (P34707 whole entry): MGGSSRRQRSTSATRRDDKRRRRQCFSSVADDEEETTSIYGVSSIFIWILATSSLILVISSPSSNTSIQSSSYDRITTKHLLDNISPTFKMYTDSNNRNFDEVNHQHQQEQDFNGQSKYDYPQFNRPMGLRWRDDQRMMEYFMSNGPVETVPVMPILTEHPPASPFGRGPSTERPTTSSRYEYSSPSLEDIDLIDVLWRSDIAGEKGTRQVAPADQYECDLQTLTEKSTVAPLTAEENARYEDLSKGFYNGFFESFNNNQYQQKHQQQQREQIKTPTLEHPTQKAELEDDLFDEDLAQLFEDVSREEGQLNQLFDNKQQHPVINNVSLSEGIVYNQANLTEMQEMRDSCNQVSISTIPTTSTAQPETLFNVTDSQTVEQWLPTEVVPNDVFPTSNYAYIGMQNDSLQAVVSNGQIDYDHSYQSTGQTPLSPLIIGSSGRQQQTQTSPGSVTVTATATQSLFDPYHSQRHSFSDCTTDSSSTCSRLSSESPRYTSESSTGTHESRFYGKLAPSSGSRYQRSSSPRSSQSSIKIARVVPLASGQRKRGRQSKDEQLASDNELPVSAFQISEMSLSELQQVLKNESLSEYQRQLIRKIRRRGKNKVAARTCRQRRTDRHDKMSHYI

Streptokinase A = molecular target: T2, Streptokinase A (Streptococcus pyogenes serotype M1, UniProt P10520); experiment: viability-normalized secreted streptokinase activity reduction – plasminogen activation absorbance, OD405, dose response (AID 1914); type: functional, Streptococcus pyogenes M1 GAS;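 also: secreted streptokinase activity via plasminogen activation per viability signal from cell pellet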
T2 sequence (P10520 whole entry): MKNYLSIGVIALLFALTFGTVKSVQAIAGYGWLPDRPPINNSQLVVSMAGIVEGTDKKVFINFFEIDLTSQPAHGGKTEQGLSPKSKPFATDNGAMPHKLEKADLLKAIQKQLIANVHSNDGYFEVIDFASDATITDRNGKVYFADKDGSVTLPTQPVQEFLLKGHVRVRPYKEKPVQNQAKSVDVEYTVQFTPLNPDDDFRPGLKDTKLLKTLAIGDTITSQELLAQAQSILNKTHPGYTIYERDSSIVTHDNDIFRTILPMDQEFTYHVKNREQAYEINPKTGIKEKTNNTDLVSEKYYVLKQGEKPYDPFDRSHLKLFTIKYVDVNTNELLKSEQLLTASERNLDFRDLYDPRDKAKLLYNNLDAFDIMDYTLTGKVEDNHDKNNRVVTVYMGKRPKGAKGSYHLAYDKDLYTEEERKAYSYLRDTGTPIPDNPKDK

[8] = molecular target: G2/mitotic-specific cyclin-B1 (Homo sapiens, UniProt P14635); experiment: HeLa cell cycle G2/M accumulation – FACS, mechanism study for Wee1 degradation inhibitor project, late-stage follow-up, panel member Cyclin B Degradation (AID 2088)
G2/mitotic-specific cyclin-B1, sequence (P14635 whole entry): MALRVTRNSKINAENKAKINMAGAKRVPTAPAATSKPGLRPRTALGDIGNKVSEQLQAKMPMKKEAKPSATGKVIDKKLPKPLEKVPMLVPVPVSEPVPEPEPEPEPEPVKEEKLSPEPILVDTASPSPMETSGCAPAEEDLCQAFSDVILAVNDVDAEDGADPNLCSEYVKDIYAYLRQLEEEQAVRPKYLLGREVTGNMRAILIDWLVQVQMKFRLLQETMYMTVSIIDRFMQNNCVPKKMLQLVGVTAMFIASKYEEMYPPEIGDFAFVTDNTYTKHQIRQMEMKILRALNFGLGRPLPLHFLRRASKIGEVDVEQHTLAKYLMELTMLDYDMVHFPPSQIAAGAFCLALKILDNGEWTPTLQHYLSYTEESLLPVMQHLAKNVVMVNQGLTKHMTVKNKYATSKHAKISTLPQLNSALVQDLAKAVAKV

Wee1-like protein kinase = Wee1-like protein kinase (Homo sapiens, UniProt P30291); experiment: HeLa cell cycle G2/M accumulation – FACS, mechanism study for Wee1 degradation inhibitor project, late-stage follow-up, panel member Wee1 Degradation (AID 2088)
Wee1-like protein kinase, sequence (P30291 whole entry): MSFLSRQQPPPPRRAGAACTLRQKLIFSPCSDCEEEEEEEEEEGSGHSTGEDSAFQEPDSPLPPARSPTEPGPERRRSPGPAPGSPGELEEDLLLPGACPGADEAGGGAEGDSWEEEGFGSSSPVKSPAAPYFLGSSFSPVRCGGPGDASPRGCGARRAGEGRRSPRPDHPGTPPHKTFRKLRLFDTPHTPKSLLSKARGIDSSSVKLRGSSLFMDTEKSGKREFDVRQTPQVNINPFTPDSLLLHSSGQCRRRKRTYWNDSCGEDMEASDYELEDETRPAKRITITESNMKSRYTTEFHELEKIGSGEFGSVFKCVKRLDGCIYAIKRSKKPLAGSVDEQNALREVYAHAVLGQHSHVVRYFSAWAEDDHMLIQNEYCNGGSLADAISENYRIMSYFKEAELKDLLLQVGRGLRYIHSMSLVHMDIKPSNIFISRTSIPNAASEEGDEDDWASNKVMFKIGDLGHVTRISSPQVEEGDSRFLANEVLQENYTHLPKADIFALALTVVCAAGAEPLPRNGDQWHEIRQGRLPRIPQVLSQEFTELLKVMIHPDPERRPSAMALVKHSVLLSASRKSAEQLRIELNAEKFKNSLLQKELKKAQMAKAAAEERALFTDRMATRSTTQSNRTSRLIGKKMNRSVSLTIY

Bcl-2-like protein 10 = Bcl-2-like protein 10 (Homo sapiens, UniProt Q9HD36); experiment: Bcl-B/TR3 peptide binding disruption – biochemical, fluorescence polarization, FITC-TR3 peptide, selectivity assay for Bfl-1 inhibitor project, primary screen (AID 748);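 also: fluorescence polarization from a fluorescein-labelled TR3 peptide binding purified Bcl-B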
Bcl-2-like protein 10, sequence (Q9HD36 whole entry): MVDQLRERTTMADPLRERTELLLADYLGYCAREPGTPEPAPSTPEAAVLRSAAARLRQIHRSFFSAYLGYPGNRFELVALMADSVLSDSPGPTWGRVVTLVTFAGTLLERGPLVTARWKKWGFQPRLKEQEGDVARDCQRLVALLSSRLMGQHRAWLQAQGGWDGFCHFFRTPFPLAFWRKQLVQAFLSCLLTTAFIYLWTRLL

[9] = molecular target: Voltage-dependent T-type calcium channel subunit alpha-1H (Homo sapiens, UniProt O95180); type: functional;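 also: channel activity triggered by adding a high calcium stimulation buffer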
[10] = molecular target: T3, Long-chain-fatty-acid--AMP ligase FadD28 (Mycobacterium tuberculosis, UniProt P9WQ59); experiment: Fluorescence polarization aasay to screen for inhibitors that compete for the binding of FadD28 to a bisubstrate Measured in Biochemical System Using Plate Reader - 2147-01_Inhibitor_Dose_CherryPick_Activity.; type: functional, Mycobacterium tuberculosis H37Rv
T3 sequence (P9WQ59 whole entry): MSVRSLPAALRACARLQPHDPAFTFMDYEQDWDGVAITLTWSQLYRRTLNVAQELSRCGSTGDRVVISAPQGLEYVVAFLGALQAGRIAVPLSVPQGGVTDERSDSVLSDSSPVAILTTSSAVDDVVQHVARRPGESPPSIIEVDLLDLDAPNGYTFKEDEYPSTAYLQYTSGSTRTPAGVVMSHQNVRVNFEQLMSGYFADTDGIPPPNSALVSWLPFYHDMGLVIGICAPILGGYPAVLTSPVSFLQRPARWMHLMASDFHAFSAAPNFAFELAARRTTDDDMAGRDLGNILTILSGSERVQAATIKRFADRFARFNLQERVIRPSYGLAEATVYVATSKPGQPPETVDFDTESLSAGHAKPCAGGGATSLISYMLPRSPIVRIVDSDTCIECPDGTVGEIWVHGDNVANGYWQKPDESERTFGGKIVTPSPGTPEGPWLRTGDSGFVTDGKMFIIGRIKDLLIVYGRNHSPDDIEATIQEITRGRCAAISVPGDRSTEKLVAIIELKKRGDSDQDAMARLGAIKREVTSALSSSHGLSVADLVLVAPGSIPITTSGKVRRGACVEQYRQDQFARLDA

[11] = Luminescence Cell-Based Dose Response HTS to Identify Activators of Luciferase Translation or Activity in H4 […] Cells. [Related pubchem assays: 1829 (Project Summary), 1814 (Primary HTS)]; type: functional
[12] = molecular target: G-protein coupled receptor 55 (Homo sapiens, UniProt Q9Y2T6); experiment: selective activators of receptor GPR55 – imaging, U2OS cells, beta-arrestin-GFP redistribution, primary screen (AID 1961); type: functional
H4 = experiment: Luminescence Cell-Based Dose Response HTS to Identify Activators of 5'UTR Stem-Loop Driven Prion Protein mRNA Translation in H4 Neuroglioblastoma Cells. [Related pubchem assays: 1829 (Project Summary), 1814 (Primary HTS)]; type: functional; settings: Homo sapiens
[13] = Luminescence Cell-Based Dose Confirmation HTS to Identify Activators of 5'UTR Stem-Loop Driven Alpha-Synuclein mRNA Translation in H4 Neuroglioblastoma Cells. [Related pubchem assays: 1829 (Project Summary), 1814 (Primary HTS)]; type: functional
[14] = molecular target: DNA dC->dU-editing enzyme APOBEC-3G (Homo sapiens, UniProt Q9HC16); experiment: Dose Response confirmation of small molecule APOBEC3G DNA Deaminase Inhibitors via a fluorescence-based single-stranded DNA deaminase assay. [Related pubchem assays (depositor defined):AID493012, AID493028]; type: functional
DNA dC->dU-editing enzyme APOBEC-3G, sequence (Q9HC16 whole entry): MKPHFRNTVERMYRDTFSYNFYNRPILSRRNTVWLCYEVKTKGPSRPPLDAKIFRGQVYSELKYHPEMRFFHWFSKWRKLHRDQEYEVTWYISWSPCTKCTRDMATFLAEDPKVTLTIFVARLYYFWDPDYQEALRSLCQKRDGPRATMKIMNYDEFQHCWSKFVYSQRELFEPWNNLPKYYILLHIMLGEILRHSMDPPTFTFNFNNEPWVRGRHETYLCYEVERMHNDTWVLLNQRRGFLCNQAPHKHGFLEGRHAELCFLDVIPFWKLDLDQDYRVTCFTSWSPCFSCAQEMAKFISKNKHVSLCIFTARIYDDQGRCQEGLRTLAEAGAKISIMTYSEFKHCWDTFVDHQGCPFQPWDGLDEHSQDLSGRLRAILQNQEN

[15] = molecular target: Eukaryotic translation initiation factor 4E (Mus musculus, UniProt P63073); experiment: blockers of eIF4G binding by eIF4E – biochemical, TR-FRET, dose response (AID 855); type: functional;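 also: potency for disrupting eIF4E binding to eIF4GI seen as loss of FRET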
Eukaryotic translation initiation factor 4E, sequence (P63073 whole entry): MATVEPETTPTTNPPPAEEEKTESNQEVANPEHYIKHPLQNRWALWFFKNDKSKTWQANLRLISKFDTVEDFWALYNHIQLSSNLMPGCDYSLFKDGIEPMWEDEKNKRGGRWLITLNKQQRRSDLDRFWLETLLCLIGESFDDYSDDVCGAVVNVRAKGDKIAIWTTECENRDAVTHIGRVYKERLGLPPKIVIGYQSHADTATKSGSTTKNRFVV

[16] = molecular target: Glyceraldehyde-3-phosphate dehydrogenase (Homo sapiens, UniProt P04406)
Glyceraldehyde-3-phosphate dehydrogenase, sequence (P04406 whole entry): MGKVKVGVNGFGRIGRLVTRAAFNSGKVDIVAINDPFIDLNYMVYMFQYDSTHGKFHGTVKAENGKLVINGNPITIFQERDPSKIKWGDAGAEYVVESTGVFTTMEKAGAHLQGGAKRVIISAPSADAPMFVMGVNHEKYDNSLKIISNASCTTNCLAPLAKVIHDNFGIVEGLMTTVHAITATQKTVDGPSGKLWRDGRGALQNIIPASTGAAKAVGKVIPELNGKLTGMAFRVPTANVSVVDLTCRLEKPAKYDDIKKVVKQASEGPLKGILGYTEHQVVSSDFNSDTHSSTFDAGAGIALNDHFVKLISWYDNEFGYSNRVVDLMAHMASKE

[17] = molecular target: T4, Alkaline phosphatase, tissue-nonspecific isozyme (Homo sapiens, UniProt P05186); experiment: potency against alkaline phosphatase TNAP – biochemical, luminescent, dose response, SAR follow-up (AID 1056)
T4 sequence (P05186 whole entry): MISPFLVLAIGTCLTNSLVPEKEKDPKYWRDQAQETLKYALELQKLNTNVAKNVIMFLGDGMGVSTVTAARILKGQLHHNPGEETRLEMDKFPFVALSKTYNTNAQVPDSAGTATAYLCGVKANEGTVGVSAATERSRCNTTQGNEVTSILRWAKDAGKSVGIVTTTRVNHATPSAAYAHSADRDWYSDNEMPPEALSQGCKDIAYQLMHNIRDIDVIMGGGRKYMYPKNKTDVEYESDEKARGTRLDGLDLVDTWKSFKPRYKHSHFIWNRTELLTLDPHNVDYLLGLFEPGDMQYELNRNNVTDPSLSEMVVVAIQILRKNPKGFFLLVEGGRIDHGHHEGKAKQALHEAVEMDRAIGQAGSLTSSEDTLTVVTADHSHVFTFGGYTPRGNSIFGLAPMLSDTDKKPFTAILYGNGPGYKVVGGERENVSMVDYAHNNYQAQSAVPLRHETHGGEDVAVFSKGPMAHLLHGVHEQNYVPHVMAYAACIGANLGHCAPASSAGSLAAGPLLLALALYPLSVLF

[18] = molecular target: DNA damage-inducible transcript 3 protein (Mus musculus, UniProt P35639); type: functional, Cricetulus griseus
DNA damage-inducible transcript 3 protein, sequence (P35639 whole entry): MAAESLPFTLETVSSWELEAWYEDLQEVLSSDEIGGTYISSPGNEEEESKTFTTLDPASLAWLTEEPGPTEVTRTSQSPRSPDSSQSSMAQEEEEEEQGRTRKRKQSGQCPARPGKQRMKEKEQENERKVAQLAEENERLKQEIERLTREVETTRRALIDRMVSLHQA

[19] = molecular target: Intestinal-type alkaline phosphatase (Homo sapiens, UniProt P09923); experiment: Dose Response confirmation of uHTS hits from a small molecule inhibitors of human intestinal alkaline phosphatase via a luminescent assay. [Related pubchem assays (depositor defined):AID2544, AID2574]; type: functional
Intestinal-type alkaline phosphatase, sequence (P09923 whole entry): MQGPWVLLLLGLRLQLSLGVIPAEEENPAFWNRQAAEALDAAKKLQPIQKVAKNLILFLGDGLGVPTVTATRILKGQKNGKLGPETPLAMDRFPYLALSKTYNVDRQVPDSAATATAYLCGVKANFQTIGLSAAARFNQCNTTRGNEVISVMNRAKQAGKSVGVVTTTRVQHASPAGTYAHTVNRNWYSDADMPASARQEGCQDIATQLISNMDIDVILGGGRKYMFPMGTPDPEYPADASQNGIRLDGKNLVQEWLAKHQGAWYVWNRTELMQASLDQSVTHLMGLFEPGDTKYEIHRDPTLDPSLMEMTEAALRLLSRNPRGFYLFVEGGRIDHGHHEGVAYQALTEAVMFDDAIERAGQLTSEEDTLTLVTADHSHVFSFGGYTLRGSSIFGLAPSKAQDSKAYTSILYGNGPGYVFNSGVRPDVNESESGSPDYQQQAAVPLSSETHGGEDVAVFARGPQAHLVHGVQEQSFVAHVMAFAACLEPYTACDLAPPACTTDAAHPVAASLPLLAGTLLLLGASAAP

[20] = molecular target: Alkaline phosphatase, placental type (Homo sapiens, UniProt P05187); experiment: human placental alkaline phosphatase inhibition – biochemical, luminescence, confirmation (AID 1512); type: functional
Alkaline phosphatase, placental type, sequence (P05187 whole entry): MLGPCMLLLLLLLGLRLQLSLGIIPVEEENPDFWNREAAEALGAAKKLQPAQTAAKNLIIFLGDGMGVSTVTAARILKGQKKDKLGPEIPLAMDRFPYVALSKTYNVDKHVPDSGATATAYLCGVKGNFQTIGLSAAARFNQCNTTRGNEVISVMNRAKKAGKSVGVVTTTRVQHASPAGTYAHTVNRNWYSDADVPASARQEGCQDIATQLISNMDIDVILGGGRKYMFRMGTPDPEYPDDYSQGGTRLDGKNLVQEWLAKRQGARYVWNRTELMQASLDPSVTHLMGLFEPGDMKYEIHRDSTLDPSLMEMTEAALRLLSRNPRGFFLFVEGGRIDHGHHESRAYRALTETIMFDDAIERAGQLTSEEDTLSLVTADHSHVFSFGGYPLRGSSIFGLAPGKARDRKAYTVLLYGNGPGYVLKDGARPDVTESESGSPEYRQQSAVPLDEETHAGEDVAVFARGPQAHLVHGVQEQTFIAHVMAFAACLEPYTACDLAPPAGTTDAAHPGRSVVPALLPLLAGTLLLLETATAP

X-box-binding protein 1, sequence (P17861 whole entry): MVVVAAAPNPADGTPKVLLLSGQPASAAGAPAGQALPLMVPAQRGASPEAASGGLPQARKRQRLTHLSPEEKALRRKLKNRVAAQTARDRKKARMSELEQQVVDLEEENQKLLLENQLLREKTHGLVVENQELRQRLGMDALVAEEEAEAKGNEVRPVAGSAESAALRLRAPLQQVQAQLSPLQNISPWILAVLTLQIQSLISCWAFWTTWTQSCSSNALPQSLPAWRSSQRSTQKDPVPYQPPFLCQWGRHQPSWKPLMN

## CCCCCCSc1nsc(NC(=O)CCC)n1
X-box-binding protein 1
  Absolute IC50 (XBP1): 10 µM

## COc1ccccc1N(CC(=O)NC(C)(C)C)S(=O)(=O)c1cccs1
Ion channel NompC
  EC50: > 29.9 µM (inactive)
Mucolipin-3
  EC50: > 29.9 µM (not active)

## O=C(/C=C\c1ccco1)Nc1nc(-c2ccc3ccccc3c2)cs1
Streptococcus
  EC50: 73.7 µM (active)
[1]
  EC50: 7.52 µM (active)
HEK293 [2]
  IC50: 3.56 µM (active)
HEK293 [3]
  IC50: 7.24 µM (active)
HEK293 [4]
  EC50: > 20 µM (inactive)
[5]
  EC50: > 20 µM (inactive)
HEK293 [6]
  IC50: > 20 µM (inactive)
HEK293 [7]
  IC50: 3.88 µM (inactive)
Protein skinhead-1
  IC50: > 100 µM (inactive)
Streptokinase A
  EC50: > 150 µM (not active)

## c1ccc(-c2cc3c(ccc4nonc43)[nH]2)cc1
[8]
  EC50: > 49.7 µM (inactive)
Wee1-like protein kinase
  EC50: > 49.7 µM (inactive)

## Cn1c(=O)n(C)c2cc(S(=O)(=O)Nc3ccccc3O)ccc21
Bcl-2-like protein 10
  IC50: > 100 µM (inactive)

## CC(C)(C)c1csc(NC(=O)Cn2c(=O)oc3ccccc32)n1
[9]
  EC50: 1.5 µM (active)
[10]
  AC50: > 100 µM (inactive)

## CC1=NN(c2ccc(C(=O)O)cc2)C(=O)/C1=C/c1ccc(-c2ccccc2F)o1
[11]
  EC50: > 120 µM (not active)
[12]
  EC50: 21.3 µM (inactive)
H4
  EC50: > 120 µM (not active)
[13]
  EC50: > 120 µM (not active)

## Cc1ccc(-n2c(N)c(C(N)=O)sc2=S)cc1
[14]
  IC50: 55.1 µM (active)
[15]
  IC50: > 64 µM (inactive)

## C[N+](C)(C)c1ccc(/C=N/Nc2nc(Cl)c(C#N)c(Cl)c2Cl)cc1
Streptococcus
  EC50: > 150 µM (not active)
[1]
  EC50: > 150 µM (not active)
[15]
  IC50: > 64 µM (inactive)
Streptokinase A
  EC50: > 150 µM (not active)

## C[C@H](NC(=O)c1ccccc1Cl)C(=O)OC(C(=O)Nc1cc(C(F)(F)F)ccc1Cl)c1ccccc1 (some centres not stated)
[9]
  EC50: 4.07 µM (active)

## COc1cccc(S(=O)(=O)Nc2cccnc2)c1
[16]
  IC50: > 100 µM (not active)
[17]
  IC50: > 100 µM (inactive)

## Cn1c(=O)cc(OCCCC(=O)Nc2cccc(Cl)c2)c2ccccc21
[8]
  EC50: > 49.7 µM (inactive)
Wee1-like protein kinase
  EC50: > 49.7 µM (inactive)

## O=C(CN1C(=O)c2cccnc2Oc2ccc(Cl)cc21)NCCCc1ccccc1
HEK293 [2]
  IC50: > 20 µM (inactive)
HEK293 [3]
  IC50: > 20 µM (inactive)
HEK293 [4]
  EC50: > 20 µM (inactive)
[5]
  EC50: > 20 µM (inactive)
HEK293 [6]
  IC50: > 20 µM (inactive)
HEK293 [7]
  IC50: > 20 µM (inactive)

## O=[N+]([O-])c1ccc(O)c(/C=N/Nc2ccccc2Cl)c1
X-box-binding protein 1
  Absolute IC50 (XBP1): 10 µM
[18]
  Absolute IC50 (CHOP): 10 µM

## CN(CC(=O)Nc1c(Cl)cccc1Cl)C(=O)CCCN1C(=O)c2ccccc2C1=O
Bcl-2-like protein 10
  IC50: > 100 µM (inactive)

## COc1ccc(Cc2nc3ccccc3n2CC(=O)N/N=C/c2ccc(C)cc2O)cc1OC
[18]
  Absolute IC50 (CHOP): 10 µM

## N#Cc1c(-c2ccccc2)nc(N2CCOCC2)[nH]c1=O
[19]
  IC50: > 100 µM (inactive)

## COc1ccc2[nH]c(SCC(=O)c3ccc(O)c(O)c3)nc2c1
[20]
  IC50: 6.17 µM (active)
[16]
  IC50: > 100 µM (not active)
[17]
  IC50: 19.3 µM (active)
